# Laboratory results: US6677460B1, “Aromatic carboxylic acid bicyclic sulfur compounds” (Idemitsu Kosan Company, Limited, priority 1993, dated 2004)
# Key:
# Type in all cases: in vivo
# corn [1] = experiment: Upland soil treatment test (5), phytotoxicity; details: dosage 100 g a.i./hectare, 20th day after treatment
# Experimental: (§1) 90 Parts by weight of the above carrier and 10 parts by weight of each of Compounds obtained in the above Preparation Examples were uniformly pulverized and mixed to obtain herbicides. Further, for Herbicide Comparative Examples, comparative herbicides were prepared by uniformly pulverizing and mixing 90 parts by weight of the above carrier and 10 parts by weight of each of the following Compounds x, y, A, B and C.
# (§2) (5) Biological Test (Upland Soil Treatment Test, Herbicide Examples 10-26 and Comparative Example 9)
# (§3) Seeds of weeds such as large crabgrass, barnyard grass, green foxtail, cocklebur, velvetleaf and slender amaranth and seeds of corn, wheat and barley were sown in 1/5,000-are Wagner pots filled with upland soil, and covered with upland soil. Then, a predetermined amount of the herbicide prepared in the above (1) was suspended in water and uniformly sprayed onto the soil surface. Thereafter, the plants were grown in the greenhouse, and on 20th day after the treatment, the herbicide was evaluated for herbicidal efficacy.
# (§4) The dosage of each herbicide is indicated as an amount of the active ingredient per hectare. Further, air-dried weight were measured, and herbicidal efficacy and the pytotoxicity to corn are shown on the basis of the ratings described below.
# velvetleaf [2] = experiment: Foliar treatment test (2); details: 20th day after treatment; further: ranges in brackets are in %
# Experimental: as §1
# (§5) (2) Biological Test (Foliar Treatment Test, Herbicide Examples 1 and 2 and Herbicide Comparative Examples 1 and 2)
# as §3, with “The seeds were grown in a greenhouse, and at the stage of 1˜2 leaves of these plants,” for “Then,”, “leaf and stalk portions at a rate of 200 liter/10 are.” for “the soil surface.”
# (§6) The herbicidal efficacy and phytotoxcity to crops were shown on the basis of the following ratings.
# (§7) The ratio of remaining plant weight to non-treated was determined on the basis of the ratio of remaining plant weight to non-treated=(remaining plant weight in treated plot/remaining plant weight in non-treated plot)×100. This is also applicable to biological tests hereinafter.
# slender amaranth [3] = experiment: Foliar treatment test (2); details: 20th day after treatment; further: ranges in brackets are in %
# Experimental: as §1, §5
# as §3, with “The seeds were grown in a greenhouse, and at the stage of 1˜2 leaves of these plants,” for “Then,”, “leaf and stalk portions at a rate of 200 liter/10 are.” for “the soil surface.”
# as §6, §7
# large crabgrass [4] = experiment: Foliar treatment test (2); details: 20th day after treatment; further: ranges in brackets are in %
# Experimental: as §1, §5
# as §3, with “The seeds were grown in a greenhouse, and at the stage of 1˜2 leaves of these plants,” for “Then,”, “leaf and stalk portions at a rate of 200 liter/10 are.” for “the soil surface.”
# as §6, §7
# barnyard grass [5] = experiment: Foliar treatment test (2); details: 20th day after treatment; further: ranges in brackets are in %
# Experimental: as §1, §5
# as §3, with “The seeds were grown in a greenhouse, and at the stage of 1˜2 leaves of these plants,” for “Then,”, “leaf and stalk portions at a rate of 200 liter/10 are.” for “the soil surface.”
# as §6, §7
# cocklebur [6] = experiment: Foliar treatment test (2); details: 20th day after treatment; further: ranges in brackets are in %
# Experimental: as §1, §5
# as §3, with “The seeds were grown in a greenhouse, and at the stage of 1˜2 leaves of these plants,” for “Then,”, “leaf and stalk portions at a rate of 200 liter/10 are.” for “the soil surface.”
# as §6, §7
# green foxtail [7] = experiment: Foliar treatment test (2); details: 20th day after treatment; further: ranges in brackets are in %
# Experimental: as §1, §5
# as §3, with “The seeds were grown in a greenhouse, and at the stage of 1˜2 leaves of these plants,” for “Then,”, “leaf and stalk portions at a rate of 200 liter/10 are.” for “the soil surface.”
# as §6, §7
# velvetleaf [8] = experiment: Upland soil treatment test (5); details: dosage 100 g a.i./hectare, 20th day after treatment; further: ranges in brackets are in %
# Experimental: as §1, §2, §3, §4
# slender amaranth [9] = experiment: Upland soil treatment test (5); details: dosage 100 g a.i./hectare, 20th day after treatment; further: ranges in brackets are in %
# Experimental: as §1, §2, §3, §4
# large crabgrass [10] = experiment: Upland soil treatment test (5); details: dosage 100 g a.i./hectare, 20th day after treatment; further: ranges in brackets are in %
# Experimental: as §1, §2, §3, §4
# barnyard grass [11] = experiment: Upland soil treatment test (5); details: dosage 100 g a.i./hectare, 20th day after treatment; further: ranges in brackets are in %
# Experimental: as §1, §2, §3, §4
# cocklebur [12] = experiment: Upland soil treatment test (5); details: dosage 100 g a.i./hectare, 20th day after treatment; further: ranges in brackets are in %
# Experimental: as §1, §2, §3, §4
# green foxtail [13] = experiment: Upland soil treatment test (5); details: dosage 100 g a.i./hectare, 20th day after treatment; further: ranges in brackets are in %
# Experimental: as §1, §2, §3, §4
# velvetleaf [14] = experiment: Upland soil treatment test (3); details: 20th day after treatment; further: ranges in brackets are in %
# Experimental: as §1
# (§8) (3) Biological Test (Upland Soil Treatment Test, Herbicide Examples 3 and 4 and Herbicide Comparative Examples 3 and 4)
# as §3, with “barnyardgrass,” for “barnyard grass,”
# (§9) The herbicidal efficacy and the phytotoxicity to crops are shown on the basis of the ratings described in (2) Foliar treatment test.
# slender amaranth [15] = experiment: Upland soil treatment test (3); details: 20th day after treatment; further: ranges in brackets are in %
# Experimental: as §1, §8
# as §3, with “barnyardgrass,” for “barnyard grass,”
# as §9
# large crabgrass [16] = experiment: Upland soil treatment test (3); details: 20th day after treatment; further: ranges in brackets are in %
# Experimental: as §1, §8
# as §3, with “barnyardgrass,” for “barnyard grass,”
# as §9
# barnyard grass [17] = experiment: Upland soil treatment test (3); details: 20th day after treatment; further: ranges in brackets are in %
# Experimental: as §1, §8
# as §3, with “barnyardgrass,” for “barnyard grass,”
# as §9
# cocklebur [18] = experiment: Upland soil treatment test (3); details: 20th day after treatment; further: ranges in brackets are in %
# Experimental: as §1, §8
# as §3, with “barnyardgrass,” for “barnyard grass,”
# as §9
# green foxtail [19] = experiment: Upland soil treatment test (3); details: 20th day after treatment; further: ranges in brackets are in %
# Experimental: as §1, §8
# as §3, with “barnyardgrass,” for “barnyard grass,”
# as §9
# velvetleaf [20] = experiment: Upland soil treatment test (6); details: 100 g/hectare, 20th day after treatment; further: ranges in brackets are in %
# Experimental: as §1
# (§10) (6) Biological Test (Upland Soil Treatment Test, Herbicide Examples 27˜42 and Comparative Example 10).
# as §3, with “foxtail, cocklebur ,” for “foxtail, cocklebur,”, “evaluated f or” for “evaluated for”
# (§11) The dosage of each herbicide is indicated as an amount of the active ingredient per hectare. Further, air-dried weight were measured and the herbicidal efficacy and the phytotoxicity to corn are shown on the basis of the ratings described below.
# slender amaranth [21] = experiment: Upland soil treatment test (6); details: 100 g/hectare, 20th day after treatment; further: ranges in brackets are in %
# Experimental: as §1, §10
# as §3, with “foxtail, cocklebur ,” for “foxtail, cocklebur,”, “evaluated f or” for “evaluated for”
# as §11
# large crabgrass [22] = experiment: Upland soil treatment test (6); details: 100 g/hectare, 20th day after treatment; further: ranges in brackets are in %
# Experimental: as §1, §10
# as §3, with “foxtail, cocklebur ,” for “foxtail, cocklebur,”, “evaluated f or” for “evaluated for”
# as §11
# barnyard grass [23] = experiment: Upland soil treatment test (6); details: 100 g/hectare, 20th day after treatment; further: ranges in brackets are in %
# Experimental: as §1, §10
# as §3, with “foxtail, cocklebur ,” for “foxtail, cocklebur,”, “evaluated f or” for “evaluated for”
# as §11
# cocklebur [24] = experiment: Upland soil treatment test (6); details: 100 g/hectare, 20th day after treatment; further: ranges in brackets are in %
# Experimental: as §1, §10
# as §3, with “foxtail, cocklebur ,” for “foxtail, cocklebur,”, “evaluated f or” for “evaluated for”
# as §11
# green foxtail [25] = experiment: Upland soil treatment test (6); details: 100 g/hectare, 20th day after treatment; further: ranges in brackets are in %
# Experimental: as §1, §10
# as §3, with “foxtail, cocklebur ,” for “foxtail, cocklebur,”, “evaluated f or” for “evaluated for”
# as §11
# corn [26] = experiment: Upland soil treatment test (6), phytotoxicity; details: 100 g/hectare, 20th day after treatment; further: ranges in brackets are in %
# Experimental: as §1, §10
# as §3, with “foxtail, cocklebur ,” for “foxtail, cocklebur,”, “evaluated f or” for “evaluated for”
# as §11
smiles,measurement,setting,value
CCn1ncc(C(=O)c2ccc3c(c2C)C(C)(C)CCS3)c1O [Compound 2],Phyto-toxicity to corn,corn [1],0 (100)
same,Herbicidal Efficacy velvetleaf,velvetleaf [2]; dosage 3 g a.i./are,4 (1-20)
same,Herbicidal Efficacy velvetleaf,velvetleaf [2]; dosage 10 g a.i./are,5 (0)
same,Herbicidal Efficacy slender amaranth,slender amaranth [3]; dosage 3 g a.i./are,3 (21-40)
same,Herbicidal Efficacy slender amaranth,slender amaranth [3]; dosage 10 g a.i./are,5 (0)
same,Herbicidal Efficacy large crabgrass,large crabgrass [4]; dosage 3 g a.i./are,5 (0)
same,Herbicidal Efficacy large crabgrass,large crabgrass [4]; dosage 10 g a.i./are,5 (0)
same,Herbicidal Efficacy barnyard grass,barnyard grass [5]; dosage 3 g a.i./are,4 (1-20)
same,Herbicidal Efficacy barnyard grass,barnyard grass [5]; dosage 10 g a.i./are,5 (0)
same,Herbicidal Efficacy cocklebur,cocklebur [6]; dosage 3 g a.i./are,5 (0)
same,Herbicidal Efficacy cocklebur,cocklebur [6]; dosage 10 g a.i./are,5 (0)
same,Herbicidal Efficacy green foxtail,green foxtail [7]; dosage 3 g a.i./are,3 (21-40)
same,Herbicidal Efficacy green foxtail,green foxtail [7]; dosage 10 g a.i./are,5 (0)
same,Herbicidal Efficacy velvetleaf,velvetleaf [8],5 (0)
same,Herbicidal Efficacy slender amaranth,slender amaranth [9],5 (0)
same,Herbicidal Efficacy large crabgrass,large crabgrass [10],5 (0)
same,Herbicidal Efficacy barnyard grass,barnyard grass [11],5 (0)
same,Herbicidal Efficacy cocklebur,cocklebur [12],5 (0)
same,Herbicidal Efficacy green foxtail,green foxtail [13],5 (0)
same,Herbicidal Efficacy velvetleaf,velvetleaf [14]; dosage 3 g a.i./are,5 (0)
same,Herbicidal Efficacy velvetleaf,velvetleaf [14]; dosage 10 g a.i./are,5 (0)
same,Herbicidal Efficacy slender amaranth,slender amaranth [15]; dosage 3 g a.i./are,5 (0)
same,Herbicidal Efficacy slender amaranth,slender amaranth [15]; dosage 10 g a.i./are,5 (0)
same,Herbicidal Efficacy large crabgrass,large crabgrass [16]; dosage 3 g a.i./are,5 (0)
same,Herbicidal Efficacy large crabgrass,large crabgrass [16]; dosage 10 g a.i./are,5 (0)
same,Herbicidal Efficacy barnyard grass,barnyard grass [17]; dosage 3 g a.i./are,5 (0)
same,Herbicidal Efficacy barnyard grass,barnyard grass [17]; dosage 10 g a.i./are,5 (0)
same,Herbicidal Efficacy cocklebur,cocklebur [18]; dosage 3 g a.i./are,5 (0)
same,Herbicidal Efficacy cocklebur,cocklebur [18]; dosage 10 g a.i./are,5 (0)
same,Herbicidal Efficacy green foxtail,green foxtail [19]; dosage 3 g a.i./are,5 (0)
same,Herbicidal Efficacy green foxtail,green foxtail [19]; dosage 10 g a.i./are,5 (0)
"CCn1ncc(C(=O)c2cc(C)c3c(c2C)C(C)CCS3(=O)=O)c1O (stereo not shown) [Compound 44, 4,5,8-trimethyl-6-(1-ethyl-5-hydroxypyrazol-4-yl)carbonylthiochroman-1,1-dioxide]",Herbicidal efficacy (E): velvetleaf,velvetleaf [20],5 (0)
same,Herbicidal efficacy (F): slender amaranth,slender amaranth [21],5 (0)
same,Herbicidal efficacy (A): large crabgrass,large crabgrass [22],5 (0)
same,Herbicidal efficacy (B): barnyard grass,barnyard grass [23],5 (0)
same,Herbicidal efficacy (D): cocklebur,cocklebur [24],5 (0)
same,Herbicidal efficacy (C): green foxtail,green foxtail [25],5 (0)
same,Phytotoxicity to corn,corn [26],0 (100)
"CCn1ncc(C(=O)c2cc(C)c3c(c2C)C(C)CCS3(=O)=O)c1OS(=O)(=O)c1ccc(C)cc1 (stereo not shown) [Compound 52, 4,5,8-trimethyl-6-(1-ethyl-5-p-toluenesulfonyloxypyrazol-4-yl)carbonylthiochroman-1,1-dioxide]",Herbicidal efficacy (E): velvetleaf,velvetleaf [20],5 (0)
same,Herbicidal efficacy (F): slender amaranth,slender amaranth [21],5 (0)
same,Herbicidal efficacy (A): large crabgrass,large crabgrass [22],5 (0)
same,Herbicidal efficacy (B): barnyard grass,barnyard grass [23],5 (0)
same,Herbicidal efficacy (D): cocklebur,cocklebur [24],5 (0)
same,Herbicidal efficacy (C): green foxtail,green foxtail [25],5 (0)
same,Phytotoxicity to corn,corn [26],0 (100)
"CCn1ncc(C(=O)c2ccc3c(c2C)CCCS3(=O)=O)c1O [Compound 48, 5-Methyl-6-(1-ethyl-5-hydroxypyrazol-4-yl)carbonylthiochroman-1,1-dioxide]",Herbicidal efficacy (E): velvetleaf,velvetleaf [20],5 (0)
same,Herbicidal efficacy (F): slender amaranth,slender amaranth [21],5 (0)
same,Herbicidal efficacy (A): large crabgrass,large crabgrass [22],5 (0)
same,Herbicidal efficacy (B): barnyard grass,barnyard grass [23],5 (0)
same,Herbicidal efficacy (D): cocklebur,cocklebur [24],1 (61-80)
same,Herbicidal efficacy (C): green foxtail,green foxtail [25],1 (61-80)
same,Phytotoxicity to corn,corn [26],0 (100)
